Test results: patent US20240034649A1, “METHODS FOR ERADICATING BIOFILMS FROM PLUMBING SYSTEMS” (GORDON & ROSENBLATT, LLC, priority 2014, published 2024)

Key:
[1] = test system: Pseudomonas aeruginosa biofilms; experiment: Minimal Biofilm Eradication Concentration (MBEC) assay, Calgary biofilm device; format: cell-based; settings: 22-25° C
Biofilm = settings: shock dose 50-80 mg/mL over 8 hours, acidic conditions, outlets flushed approx. 1 hour; cited from earlier work
Legionella = settings: cited from earlier work
[2] = at STP; cited from earlier work

Compound: OCl [Bleach, sodium hypochlorite]
- Log10 reduction ([1]; Bleach 3.15 ppm, pH 6.5, 30 min): 0.16 CFU/mm^2
- Log10 reduction ([1]; Bleach 3.15 ppm, pH 7.5, 30 min): 0.96 CFU/mm^2
- Log10 reduction ([1]; Bleach 6.31 ppm, pH 6.5, 30 min): Total inhibition
- Log10 reduction ([1]; Bleach 6.31 ppm, pH 7.5, 30 min): 1.91 CFU/mm^2
- Log10 reduction ([1]; Bleach 12.6 ppm, pH 6.5, 30 min): Total inhibition
- Log10 reduction ([1]; Bleach 12.6 ppm, pH 7.5, 30 min): 3.03 CFU/mm^2
- Log10 reduction ([1]; Bleach 50.5 ppm, pH 6.5, 30 min): Total inhibition
- Log10 reduction ([1]; Bleach 50.5 ppm, pH 7.5, 30 min): Total inhibition

Compound: chlorine dioxide [CD]
- bacteria recovered from showerheads after treatment (Biofilm): > 3000 cfu/ml
- time needed to achieve significant reduction in Legionella positivity (Legionella): > 12 months
- Log10 reduction ([1]; CD 3.12 ppm, pH 6.5, 30 min): 0.82 CFU/mm^2
- Log10 reduction ([1]; CD 3.12 ppm, pH 7.5, 30 min): 1.63 CFU/mm^2
- Log10 reduction ([1]; CD 6.25 ppm, pH 6.5, 30 min): 2.56 CFU/mm^2
- Log10 reduction ([1]; CD 6.25 ppm, pH 7.5, 30 min): 2.38 CFU/mm^2
- Log10 reduction ([1]; CD 12.5 ppm, pH 6.5, 30 min): 2.34 CFU/mm^2
- Log10 reduction ([1]; CD 12.5 ppm, pH 7.5, 30 min): 2.49 CFU/mm^2
- Log10 reduction ([1]; CD 50.0 ppm, pH 6.5, 30 min): Total inhibition
- Log10 reduction ([1]; CD 50.0 ppm, pH 7.5, 30 min): total inhibition
- solubility in water relative to chlorine [2]: approximately 10 times
